The target of the experiment is T1, Tyrosine-protein phosphatase non-receptor type 11 (Homo sapiens, UniProt Q06124).
T1 sequence (Q06124 whole entry): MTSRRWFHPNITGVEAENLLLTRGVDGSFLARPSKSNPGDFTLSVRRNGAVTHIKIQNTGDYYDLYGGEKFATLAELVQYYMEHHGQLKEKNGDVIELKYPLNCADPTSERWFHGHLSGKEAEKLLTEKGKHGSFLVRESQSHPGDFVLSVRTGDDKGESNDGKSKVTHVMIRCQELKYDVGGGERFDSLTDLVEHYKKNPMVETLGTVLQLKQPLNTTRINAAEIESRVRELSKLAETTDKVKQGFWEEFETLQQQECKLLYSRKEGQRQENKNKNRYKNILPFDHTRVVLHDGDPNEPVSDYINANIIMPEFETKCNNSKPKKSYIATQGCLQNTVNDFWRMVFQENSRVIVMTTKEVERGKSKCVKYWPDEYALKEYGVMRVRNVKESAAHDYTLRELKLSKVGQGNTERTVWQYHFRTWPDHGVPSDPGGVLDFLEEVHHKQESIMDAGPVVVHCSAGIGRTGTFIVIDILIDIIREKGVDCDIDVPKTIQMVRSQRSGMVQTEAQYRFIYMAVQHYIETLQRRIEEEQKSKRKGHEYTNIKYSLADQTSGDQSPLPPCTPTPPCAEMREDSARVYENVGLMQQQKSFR
Nature of the experiment: SHP2 Inhibition Enzymatic Assay. The method, then:
Assay volume of 20 μL/well was assembled in 384 well black polystyrene low-binding microplates (Greiner), using the following buffer: 60 mM HEPES pH 7.2, 75 mM NaCl, 75 mM KCl, 1 mM EDTA pH 8, 0.05% tween-20, 5 mM DTT. The SHP-2 enzyme (synthetized by Origene, Met1-Leu525, cat #TP750155) was used at a final concentration of 0.5 nM. […] SHP2 was then added together with the IRS1 peptide. 30 min post incubation, the DiFMUP substrate was added to the reaction and incubated 30 min at room temperature. […] The fluorescence was detected by a microplate reader (Envision, PerkinElmer) according to the DiFMUP excitation and emission wavelength. The lower the fluorescence the higher the SHP2 inhibition. […] The percentage inhibition is fitted against the compound dilutions with a four-parameter logistic regression.

Structures are written as SMILES.

A word on the IC50: it is the midpoint of a concentration-inhibition curve. Read a high IC50 as weaker potency in that assay.

In the case of `NCC1(c2ccccc2F)C2CCN(c3cc4nc(Sc5ccnc(N)c5Cl)cnc4[nH]3)CC21` (centres undefined) [US20240109900, Example 59], the concentration for half-maximal inhibition (IC50) is less than 500 nM.

`Cc1cc(C(N)=O)ncc1-c1n[nH]c2nc(N3CC[C@@H]4[C@H](C3)[C@@]4(CN)c3ccccc3F)cnc12` [US20240109900, Example 307] registered a 50% inhibitory concentration (IC50) of less than 500 nM.

The molecule `Cc1c(-c2n[nH]c3nc(N4CC[C@@H]5[C@H](C4)[C@@]5(CN)c4cc(F)cc(F)c4)cnc23)ccc2nn(C)cc12` [US20240109900, Example 308] had an IC50 of less than 500 nM.

Molecule `N#CNC(=O)c1ccc(-c2n[nH]c3nc(N4CC[C@@H]5[C@H](C4)[C@@]5(CN)c4ccccc4F)cnc23)c(Cl)c1` [US20240109900, Example 310] displayed an IC50 of less than 500 nM.

`NC[C@]1(c2ccccc2F)[C@@H]2CCN(c3cnc4c(-c5ccc(-c6cc(F)c(O)c(F)c6)cc5Cl)n[nH]c4n3)C[C@@H]21` [US20240109900, Example 313]: the IC50 was less than 500 nM.

In turn, `NC[C@]1(c2ccccc2F)[C@@H]2CCN(c3cnc4c(-c5ccc(F)c6c(=O)[nH]ccc56)n[nH]c4n3)C[C@@H]21` [US20240109900, Example 314] registered an IC50 of less than 500 nM.

`Cc1c(-c2n[nH]c3nc(N4CC[C@@H]5[C@H](C4)[C@@]5(CN)c4ccccc4F)cnc23)ccc2c1ncn2C` [US20240109900, Example 318]: the IC50 was less than 500 nM.

For `NC[C@]1(c2ccccc2F)[C@@H]2CCN(c3cnc4c(-c5ccc6c(N)nccc6c5)n[nH]c4n3)C[C@@H]21` [US20240109900, Example 319], the IC50 was less than 500 nM.

The molecule `CN1CCOc2ccc(-c3n[nH]c4nc(N5CC[C@@H]6[C@H](C5)[C@@]6(CN)c5ccccc5F)cnc34)c(Cl)c21` [US20240109900, Example 321] returned a half-inhibitory concentration (IC50) of less than 500 nM.

`NC[C@]1(c2ccccc2F)[C@@H]2CCN(c3cnc4c(-c5ccc(CC(N)=O)cc5Cl)n[nH]c4n3)C[C@@H]21` [US20240109900, Example 328]: the IC50 was less than 500 nM.

In the case of `NC[C@]1(c2ccccc2F)[C@@H]2CCN(c3nc4nc(Sc5ccnc(-n6cccn6)c5Cl)cnc4[nH]3)C[C@@H]21` [US20240109900, Example 342], the IC50 was less than 500 nM.

`COc1nccc2cc(-c3n[nH]c4nc(N5CC[C@@H]6[C@H](C5)[C@@]6(CN)c5ccccc5F)cnc34)ccc12` [US20240109900, Example 352] registered a half-inhibitory concentration (IC50) of less than 500 nM.

Take `Cc1nc2ccc(-c3n[nH]c4nc(N5CC[C@@H]6[C@H](C5)[C@@]6(CN)c5ccccc5F)cnc34)c(Cl)c2n1C` [US20240109900, Example 358]: the IC50 is less than 500 nM.

For the molecule `NC[C@]1(c2ccccc2F)[C@@H]2CCN(c3cnc4c(-c5ccc6nn(CCO)cc6c5Cl)n[nH]c4n3)C[C@@H]21` [US20240109900, Example 365], the IC50 was less than 500 nM.

`CC(C)(C)C#Cc1n[nH]c2nc(N3CC[C@@H]4[C@H](C3)[C@@]4(CN)c3ccccc3F)cnc12` [US20240109900, Example 366] displayed an IC50 of less than 500 nM.

Consider `NC[C@]1(c2ccccc2F)[C@@H]2CCN(c3cnc4c(-c5ccc(-c6nsc(O)n6)cc5Cl)n[nH]c4n3)C[C@@H]21` [US20240109900, Example 379], for which the IC50 is less than 500 nM.

`NC[C@]1(c2ccsn2)[C@@H]2CN(c3cnc4c(-c5ccc6nn(C(F)F)cc6c5Cl)n[nH]c4n3)C[C@@H]21` [US20240109900, Example 468] displayed a concentration for half-maximal inhibition (IC50) of less than 500 nM.

As to `Cc1csc([C@@]2(CN)[C@@H]3CN(c4cnc5c(-c6ccnc(C)c6F)n[nH]c5n4)C[C@@H]32)n1` [US20240109900, Example 477], the IC50 was less than 500 nM.

`Cc1csc([C@@]2(CN)[C@@H]3CCN(c4cnc5c(-c6ccc(F)c7ncccc67)c[nH]c5n4)C[C@@H]32)n1` [US20240109900, Example 502] returned an IC50 of less than 500 nM.

The molecule `Cc1csc([C@@]2(CN)[C@@H]3CN(c4cnc5c(-c6ccc7c(c6)CC(=O)N7C)n[nH]c5n4)C[C@@H]32)n1` [US20240109900, Example 513] showed an IC50 of less than 500 nM.

As for `Cc1csc([C@@]2(CN)[C@@H]3CN(c4cnc5c(-c6ccnc(-n7cccn7)c6Cl)n[nH]c5n4)C[C@@H]32)n1` [US20240109900, Example 516], the IC50 is less than 500 nM.

`Cc1csc([C@@]2(CN)[C@@H]3CN(c4cnc(Sc5ccnc(-n6cccn6)c5Cl)cn4)C[C@@H]32)n1` [US20240109900, Example 520]: the IC50 is less than 500 nM.

Take `Cc1csc([C@@]2(CN)[C@@H]3CN(c4nc(C)n(-c5cccc(Cl)c5Cl)c(=O)c4Cl)C[C@@H]32)n1` [US20240109900, Example 526]: the IC50 was less than 500 nM.

Turning to `NC[C@]1(c2cc(F)ccc2F)[C@@H]2CCN(c3cnc4c(-c5cccc6c5CCC(=O)N6)n[nH]c4n3)C[C@@H]21` [US20240109900, Example 531], the IC50 is less than 500 nM.

Values taken from BindingDB's records for patent US20240109900 (IRBM, 2024).
